Measured values published in article PMC8963105, “A Novel Modulator of the Renin–Angiotensin System, Benzoylaconitine, Attenuates Hypertension by Targeting ACE/ACE2 in Enhancing Vasodilation and Alleviating Vascular Inflammation” (Frontiers in Pharmacology, 2022).

Experiments:
rhACE = rhACE (Homo sapiens, UniProt P12821); test: ACE activity assay kit (enzyme kinetics, cell-free); assay type: biochemical
Procedure: (§1) ACE and ACE2 activities were measured using the ACE activity assay kit and SensoLyte390 ACE2 activity assay kit (Anaspec, Fremont, CA, United States), respectively, according to the manufacturer’s instructions with some modifications. Briefly, rhACE solution dissolved in deionized water was used for analysis. ACE activity was measured in a reaction system with 50 μl of the sample and 50 μl of the ACE substrate solution with or without BAC (10^–4 to 10^–2 μM). ACE2 activity was assayed in the same manner as ACE activity. All assays were performed every 10 s for 30 min at 37°C using a Varioskan LUX fluorescence microplate reader (Thermo Fisher Scientific, Waltham, MA, United States). The autofluorescence value in each assay was subtracted from the measured values to generate the final results. The relative fluorescence unit of each sample was normalized to the corresponding total protein concentration, which was measured using a Pierce BCA protein assay kit (Thermo Fisher Scientific).

rhACE2 = target: T1, rhACE2 (Homo sapiens, UniProt Q9BYF1); test: SPR assay with rhACE2; assay type: binding; settings: rhACE2 on chip, 5% DMSO–1.05× PBS
T1 construct: purchased Proteintech
T1 sequence (Q9BYF1 18-805): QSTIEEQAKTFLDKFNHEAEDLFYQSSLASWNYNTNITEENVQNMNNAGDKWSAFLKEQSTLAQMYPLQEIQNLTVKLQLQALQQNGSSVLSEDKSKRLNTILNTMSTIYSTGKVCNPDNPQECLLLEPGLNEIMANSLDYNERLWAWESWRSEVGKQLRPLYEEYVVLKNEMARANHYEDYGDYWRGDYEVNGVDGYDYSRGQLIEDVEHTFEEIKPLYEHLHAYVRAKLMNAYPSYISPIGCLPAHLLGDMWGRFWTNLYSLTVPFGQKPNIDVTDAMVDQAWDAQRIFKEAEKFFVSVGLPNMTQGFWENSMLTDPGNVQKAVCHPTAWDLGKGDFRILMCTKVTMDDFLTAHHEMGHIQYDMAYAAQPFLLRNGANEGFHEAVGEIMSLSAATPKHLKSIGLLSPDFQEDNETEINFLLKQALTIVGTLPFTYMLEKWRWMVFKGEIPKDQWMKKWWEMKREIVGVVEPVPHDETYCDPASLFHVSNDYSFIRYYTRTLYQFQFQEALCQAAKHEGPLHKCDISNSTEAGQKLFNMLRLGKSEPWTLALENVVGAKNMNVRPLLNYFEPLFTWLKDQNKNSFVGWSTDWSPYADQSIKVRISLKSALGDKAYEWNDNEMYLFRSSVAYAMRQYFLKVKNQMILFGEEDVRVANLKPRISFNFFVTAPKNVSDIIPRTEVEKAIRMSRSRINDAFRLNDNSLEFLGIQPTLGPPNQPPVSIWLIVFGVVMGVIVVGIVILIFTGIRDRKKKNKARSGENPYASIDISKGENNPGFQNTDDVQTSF
Procedure: (§2) To screen the potential targets of the MDAs in hypertension, a CVDPlatform (www.cbligand.org/CVD) was used as previously reported ([Zhang et al., 2016a]). The results of database screening were verified by virtual docking with Discovery Studio 3.5 (BIOVIA, San Diego, CA, United States) and then validated in the SPR assay. In the SPR assay, a solution of protein standards was prepared, and the concentration of recombinant human ACE (rhACE) protein and rhACE2 (Proteintech, Rosemont, IL, United States) solution was set to 500 μg ml^−1. […] Finally, the level of binding between the proteins and each molecule was determined based on the K d value.

hrACE2 = hrACE2 (Homo sapiens, UniProt Q9BYF1); test: SensoLyte390 ACE2 activity assay (enzyme kinetics, cell-free); assay type: biochemical; settings: EC50 of BMC and BHC could not be determined
Sequence of hrACE2 (Q9BYF1 18-805): as above
Procedure: as §1

[1] = target: T2, recombinant human ACE (rhACE) (Homo sapiens, UniProt P12821); test: SPR assay with rhACE; assay type: binding; settings: rhACE on chip, 5% DMSO–1.05× PBS
T2 construct: purchased Proteintech
T2 sequence (P12821 30-1306): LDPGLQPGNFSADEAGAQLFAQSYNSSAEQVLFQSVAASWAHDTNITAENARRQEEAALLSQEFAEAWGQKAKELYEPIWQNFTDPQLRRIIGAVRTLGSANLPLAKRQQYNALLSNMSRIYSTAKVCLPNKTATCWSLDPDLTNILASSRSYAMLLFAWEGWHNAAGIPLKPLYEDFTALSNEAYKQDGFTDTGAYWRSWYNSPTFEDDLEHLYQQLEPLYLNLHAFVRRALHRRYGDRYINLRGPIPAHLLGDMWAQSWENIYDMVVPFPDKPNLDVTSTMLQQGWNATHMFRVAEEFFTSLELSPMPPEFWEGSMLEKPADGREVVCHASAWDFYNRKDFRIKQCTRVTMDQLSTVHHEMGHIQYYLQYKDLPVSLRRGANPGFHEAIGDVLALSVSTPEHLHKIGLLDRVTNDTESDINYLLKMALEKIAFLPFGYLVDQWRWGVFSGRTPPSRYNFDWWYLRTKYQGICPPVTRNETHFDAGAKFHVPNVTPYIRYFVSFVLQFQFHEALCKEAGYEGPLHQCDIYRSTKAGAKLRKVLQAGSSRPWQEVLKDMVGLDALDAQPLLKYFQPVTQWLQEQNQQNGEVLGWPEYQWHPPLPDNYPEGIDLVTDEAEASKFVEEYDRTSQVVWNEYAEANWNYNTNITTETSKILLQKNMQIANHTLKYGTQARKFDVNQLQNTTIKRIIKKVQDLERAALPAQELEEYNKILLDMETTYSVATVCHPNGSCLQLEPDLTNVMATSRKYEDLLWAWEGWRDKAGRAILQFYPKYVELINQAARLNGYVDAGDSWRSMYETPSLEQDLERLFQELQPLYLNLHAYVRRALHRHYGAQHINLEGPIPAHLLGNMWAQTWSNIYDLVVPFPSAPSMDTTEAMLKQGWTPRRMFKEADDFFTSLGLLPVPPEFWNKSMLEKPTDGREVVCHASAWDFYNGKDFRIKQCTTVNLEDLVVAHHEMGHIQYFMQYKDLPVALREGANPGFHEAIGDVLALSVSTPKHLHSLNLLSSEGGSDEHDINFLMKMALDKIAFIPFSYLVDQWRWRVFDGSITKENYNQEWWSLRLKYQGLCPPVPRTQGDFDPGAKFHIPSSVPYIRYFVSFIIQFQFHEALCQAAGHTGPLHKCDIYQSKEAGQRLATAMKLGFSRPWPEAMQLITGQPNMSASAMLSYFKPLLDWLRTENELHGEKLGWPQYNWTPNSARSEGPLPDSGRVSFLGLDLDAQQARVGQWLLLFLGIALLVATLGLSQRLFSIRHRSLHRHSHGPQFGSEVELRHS
Procedure: as §2

[2] = test system: spontaneously hypertension rats (SHRs); test: acute experiment: real-time blood pressure after i.v. injection in SHRs; assay type: in vivo, rat; settings: for anti-hypertensive effect (in words): acute experiment, i.v. injection 0.6–6 mg kg^−1
Procedure: (§3) The SHRs were surgically implanted with a catheter via the left femoral artery, vein, and stomach after anesthetizing with 2% pentobarbital sodium (40 mg kg^−1 i.p.,). A pressure sensor was inserted into the terminal of the arterial catheter and connected to a PowerLab system (ADInstruments, New South Wales, Australia) for real-time blood pressure monitoring.
(§4) All three MDAs (BAC, BMC, and BHC) were purchased from Nature-Standard Co., Ltd. (Shanghai, China) and their purities were all over 98%. The anti-hypertensive effects of MDAs were studied in both acute and chronic experiments. The 16-week-old SHRs were used in animal experiments, and each group had six rats. In the acute experiment, drug administration was via i.v. injection. For i.v. injection, the animals were randomly assigned into four groups: vehicle (0.1% DMSO–0.9% salt solution, n = 6), low-dose group (0.6 mg kg^−1 body weight, n = 6), medium-dose group (2 mg kg^−1 body weight, n = 6), and high-dose group (6 mg kg^−1 body weight, n = 6). The drug was administered using a venous catheter. In chronic experiments, the animals were randomly assigned into five groups: vehicle (5% Tween 80–0.9% salt solution, n = 6), captopril group (5 mg kg^−1 body weight, n = 6), low-dose group (3 mg kg^−1 body weight, n = 6), medium-dose group (10 mg kg^−1 body weight, n = 6), and high-dose group (30 mg kg^−1 body weight, n = 6). Oral administration with drug or 5% Tween 80–0.9% salt solution was carried out once a day, and continued for 14 days. The drugs were dissolved in 0.1% DMSO–0.9% salt solution for intravenous injection and in 5% Tween 80–0.9% salt solution for oral administration. Blood pressure was recorded in real time.
(§5) Real-time blood pressure level was monitored after drug treatment in the acute and chronic experiments. All animals were surgically implanted with a catheter in the left femoral artery. After connection to the monitor, all animals were placed at room temperature of 25°C for 0.5–1 h and the average blood pressure value was calculated based on a real-time blood pressure curve (10 s of every 30 s).

[3] = test system: spontaneously hypertension rats (SHRs); test: chronic experiment: blood pressure, heart rate and aorta histology after 14-day oral administration in SHRs; assay type: in vivo, rat; settings: once a day, 14 days
Procedure: as §3, §4, §5
After euthanizing the rats with sodium pentobarbital (100 mg kg^−1, i.p.) administration in combination with isoflurane inhalation, the aortas were harvested directly according to a previously described method. The aortas were fixed in 4% paraformaldehyde for 24 h and embedded in paraffin. The cross-sections (5 μm) were stained with hematoxylin and eosin or subjected to immunostaining. Immunofluorescence staining for ACE and ACE2 was performed according to the manufacturer’s instructions (Servicebio, Wuhan, China).

Sequence of rhACE (P12821 30-1306): as above

| Compound | IC50 (rhACE; 37°C, 30 min) | Kd (rhACE2) | effect on ACE2 activity (in words) (hrACE2) | Kd [1] | anti-hypertensive effect (in words) [2] | blood pressure reduction ([2]; i.v. injection, 6 mg kg^−1) | effect on ACE activity (in words) (rhACE; IC50 could not be determined) | heart rate [3] |
| --- | --- | --- | --- | --- | --- | --- | --- | --- |
| COCC12CN(C)C3C4C(OC)C1C3(C(OC)CC2O)C1CC2(O)C(OC)C(O)C4(O)C1C2OC(=O)c1ccccc1 (stereo not drawn) [BMC, Benzoylmesaconine] | 960 nM | 20.5 µM | weaker pharmacodynamics effects | 53.6 µM | observable anti-hypertensive effects | approximately 20 mmHg | – | – |
| COCC12CCC(OC)C34C5CC6(O)C(OC)C(O)C(O)(C5C6OC(=O)c5ccccc5)C(C(OC)C13)C4N(C)C2 (stereo not drawn) [BHC, Benzoylhypaconitine] | – | 308 µM | weaker pharmacodynamics effects | 139 µM | no anti-hypertensive effects | – | little effect | – |
| C[C@H](CS)C(=O)N1CCC[C@H]1C(=O)O [captopril, reference compound] | – | – | – | – | – | – | – | Heart rate changed |
